Tested on: Plasmodium berghei
Assay: Luciferase/luciferin-expressing antifolate-resistant parasites were used to infect a culture of HepG2 cells that were pre-incubated with compounds. Infected hepatocytes emit light due to the luciferase reaction. Assay results are presented as the percent inhibition of light emission compared to control. […]
Assay type: functional
Details: sporozoite; for IC90: read-out: LUCIFERASE INFECTION ASSAY - IC90

| SMILES | IC90 | other results |
| --- | --- | --- |
| Cc1onc(-c2ccc(Cl)cc2Cl)c1-c1csc(Nc2ccc(Cl)cc2)n1 | > 7.56 µM | IC50 (FFLUC_HILL_SLOPE 2.37, FFLUC_R_SQUARED 0.46, PBLUC_HILL_SLOPE 2.86, PBLUC_R_SQUARED 0.233, read-out: LUCIFERASE INFECTION ASSAY - IC50): 6.39 µM |
| O=C1CCCC2=Nc3ccc4ccccc4c3C(c3ccc(F)cc3F)C12 (stereo not drawn) | > 10 µM | IC50 (FFLUC_HILL_SLOPE 2.36, FFLUC_R_SQUARED 0.309, read-out: LUCIFERASE INFECTION ASSAY - IC50): > 10 µM |
| O=C(Nc1ccc(Cl)cc1)Nc1nc(-c2cc(Cl)sc2Cl)cs1 | 7.79 µM | IC50 (FFLUC_HILL_SLOPE 2.44, FFLUC_R_SQUARED 0.604, PBLUC_HILL_SLOPE 2.52, PBLUC_R_SQUARED 0.549, read-out: LUCIFERASE INFECTION ASSAY - IC50): 3.26 µM |
| O=C1C(=O)N(Cc2ccc(Cl)cc2)c2c1cccc2C(F)(F)F | 3.39 µM | IC50 (FFLUC_HILL_SLOPE 2.39, FFLUC_R_SQUARED 0.89, HEPG2TOX_HILL_SLOPE 3.88, HEPG2TOX_R_SQUARED 0.975, PBLUC_HILL_SLOPE 2.88, PBLUC_R_SQUARED 0.708, read-out: LUCIFERASE INFECTION ASSAY - IC50): 1.58 µM |
| Cc1ccc(C2(c3ccccc3)NC(=O)N(CC(=O)c3ccc(Br)s3)C2=O)cc1C (stereo not drawn) | 3.91 µM | IC50 (FFLUC_HILL_SLOPE 2.42, FFLUC_R_SQUARED 0.19, PBLUC_HILL_SLOPE 12.8, PBLUC_R_SQUARED 0.482, read-out: LUCIFERASE INFECTION ASSAY - IC50): 3.29 µM |
| COC(=O)c1ccc(/C=C2\Oc3cc(O)cc(C)c3C2=O)cc1 | > 10.6 µM | IC50 (FFLUC_HILL_SLOPE 2.39, FFLUC_R_SQUARED 0.815, read-out: LUCIFERASE INFECTION ASSAY - IC50): > 10.6 µM |
| O=C(Nc1nc2c(s1)CCC2)c1cnn(-c2ccccc2)c1C1CC1 | 0.405 µM | IC50 (FFLUC_HILL_SLOPE 2.39, FFLUC_R_SQUARED 0.896, PBLUC_HILL_SLOPE 0.607, PBLUC_R_SQUARED 0.989, read-out: LUCIFERASE INFECTION ASSAY - IC50): 0.0108 µM |
| Cc1ccc(-c2nn(-c3ccccc3)cc2/C=C(/C(=O)c2ccccc2)c2nc3ccccc3s2)o1 | > 10 µM | IC50 (FFLUC_HILL_SLOPE 2.3, FFLUC_R_SQUARED 0.652, PBLUC_HILL_SLOPE 2.05, PBLUC_R_SQUARED 0.091, read-out: LUCIFERASE INFECTION ASSAY - IC50): > 10 µM |
| C=CCn1c(SC(C(=O)c2c[nH]c3ccccc23)c2ccccc2)nc2sc(C)c(C)c2c1=O (stereo not drawn) | 3.74 µM | IC50 (FFLUC_HILL_SLOPE 2.34, FFLUC_R_SQUARED 0.404, HEPG2TOX_HILL_SLOPE 0.632, HEPG2TOX_R_SQUARED 0.765, PBLUC_HILL_SLOPE 19.2, PBLUC_R_SQUARED 0.592, read-out: LUCIFERASE INFECTION ASSAY - IC50): 3.33 µM |
| COc1ccccc1NC1=C(Cl)C(=O)c2ccccc2C1=O | 8.17 µM | IC50 (FFLUC_HILL_SLOPE 2.43, FFLUC_R_SQUARED 0.19, HEPG2TOX_HILL_SLOPE 11.1, HEPG2TOX_R_SQUARED 0.994, PBLUC_HILL_SLOPE 1.56, PBLUC_R_SQUARED 0.76, read-out: LUCIFERASE INFECTION ASSAY - IC50): 2 µM |
| Cc1cc(C(=O)ONC(=N)c2ccccc2)nn1C(C)(C)C | 1.23 µM | IC50 (FFLUC_HILL_SLOPE 2.36, FFLUC_R_SQUARED 0.364, PBLUC_HILL_SLOPE 1.16, PBLUC_R_SQUARED 0.78, read-out: LUCIFERASE INFECTION ASSAY - IC50): 0.186 µM |
| S=C(NCC1CCCO1)c1c(-c2ccccc2)c2c3n(c(COc4ccccc4)nn13)CCCC2 (stereo not drawn) | 9.41 µM | IC50 (FFLUC_HILL_SLOPE 2.32, FFLUC_R_SQUARED 0.306, HEPG2TOX_HILL_SLOPE 7.94, HEPG2TOX_R_SQUARED 0.0665, PBLUC_HILL_SLOPE 11.7, PBLUC_R_SQUARED 0.258, read-out: LUCIFERASE INFECTION ASSAY - IC50): 7.8 µM |
| NC(=O)c1ccsc1NC(=O)Cc1coc2ccc3ccccc3c12 | > 10 µM | IC50 (FFLUC_HILL_SLOPE 2.43, FFLUC_R_SQUARED 0.812, HEPG2TOX_HILL_SLOPE 2.74, HEPG2TOX_R_SQUARED 0.883, PBLUC_HILL_SLOPE 2.33, PBLUC_R_SQUARED 0.39, read-out: LUCIFERASE INFECTION ASSAY - IC50): 5.74 µM |
| CC(C)n1ncc2c(C(=O)Nc3nnc(C(F)(F)F)s3)cc(-c3ccc4c(c3)OCCO4)nc21 | 5.59 µM | IC50 (FFLUC_HILL_SLOPE 2.46, FFLUC_R_SQUARED 0.0818, HEPG2TOX_HILL_SLOPE 10.3, HEPG2TOX_R_SQUARED 0.775, PBLUC_HILL_SLOPE 73.3, PBLUC_R_SQUARED 0.159, read-out: LUCIFERASE INFECTION ASSAY - IC50): 5.42 µM |
| c1ccc2cc(C3=NNC(=NC4CC4)SC3)ccc2c1 | 0.0194 µM | IC50 (FFLUC_HILL_SLOPE 2.37, FFLUC_R_SQUARED 0.781, HEPG2TOX_HILL_SLOPE 1.63, HEPG2TOX_R_SQUARED 0.913, PBLUC_HILL_SLOPE 5.38, PBLUC_R_SQUARED 0.229, read-out: LUCIFERASE INFECTION ASSAY - IC50): 0.0129 µM |
| O=C(CSc1nnc(-c2ccc(Cl)cc2Cl)n1-c1ccc(F)c(Cl)c1)NCCC1=CCCCC1 | > 10 µM | IC50 (FFLUC_HILL_SLOPE 2.41, FFLUC_R_SQUARED 0.138, HEPG2TOX_HILL_SLOPE 7.97, HEPG2TOX_R_SQUARED 0.0659, PBLUC_HILL_SLOPE 2.87, PBLUC_R_SQUARED 0.0345, read-out: LUCIFERASE INFECTION ASSAY - IC50): 8.61 µM |
| CC(=O)C1=NN(c2ccccc2)C(c2ccccc2OCc2ccccc2)N1c1ccc(N2CCOCC2)cc1 (stereo not drawn) | > 10 µM | IC50 (FFLUC_HILL_SLOPE 2.34, FFLUC_R_SQUARED 0.456, PBLUC_HILL_SLOPE 2.53, PBLUC_R_SQUARED 0.447, read-out: LUCIFERASE INFECTION ASSAY - IC50): 9.41 µM |
| O=C(COC(=O)c1ccc2ccccc2c1)c1cc2c3c(c1)CC(=O)N3CCC2 | > 10 µM | IC50 (FFLUC_HILL_SLOPE 2.44, FFLUC_R_SQUARED 0.438, read-out: LUCIFERASE INFECTION ASSAY - IC50): > 10 µM |
| Fc1ccc(CSc2nc(CSc3ccc(Cl)cc3)cc(Sc3ccc(Cl)cc3)n2)cc1 | > 6.35 µM | IC50 (FFLUC_HILL_SLOPE 2.29, FFLUC_R_SQUARED 0.432, read-out: LUCIFERASE INFECTION ASSAY - IC50): > 6.35 µM |
| CCCN(CCC)c1ccc(C(C2C(=O)CC(C)(C)CC2=O)C2C(=O)CC(C)(C)CC2=O)cc1 | > 10 µM | IC50 (FFLUC_HILL_SLOPE 2.34, FFLUC_R_SQUARED 0.0441, PBLUC_HILL_SLOPE 3.18, PBLUC_R_SQUARED 0.551, read-out: LUCIFERASE INFECTION ASSAY - IC50): 5.61 µM |
| CC(C)(CSc1ccc(F)cc1)NS(=O)(=O)c1ccc(Cl)cc1 | > 10 µM | IC50 (FFLUC_HILL_SLOPE 2.37, FFLUC_R_SQUARED 0.607, HEPG2TOX_HILL_SLOPE 7.41, HEPG2TOX_R_SQUARED 0.381, PBLUC_HILL_SLOPE 2.26, 0.933, PBLUC_R_SQUARED 0.368, 0.781, read-out: LUCIFERASE INFECTION ASSAY - IC50): 4.38 µM |
| Cc1ccc(N2C(=O)/C(=C/c3ccc(C(C)C)cc3)N=C2SCc2cccc(S(=O)(=O)N(C)C)c2)cc1 | > 10 µM | IC50 (FFLUC_HILL_SLOPE 2.29, FFLUC_R_SQUARED 0.777, PBLUC_HILL_SLOPE 2.35, PBLUC_R_SQUARED 0.372, read-out: LUCIFERASE INFECTION ASSAY - IC50): 6.97 µM |
| O=S(=O)(c1ccc(CNc2ncnc3scc(-c4ccc(F)cc4)c23)s1)N1CCCC1 | > 10 µM | IC50 (FFLUC_HILL_SLOPE 2.33, FFLUC_R_SQUARED 0.668, PBLUC_HILL_SLOPE 11.9, PBLUC_R_SQUARED 0.757, read-out: LUCIFERASE INFECTION ASSAY - IC50): 8.74 µM |
| O=C(N/N=C/c1c(-c2ccccc2)n(-c2ccccc2)c2ccccc12)C1COc2ccccc2O1 (stereo not drawn) | > 10 µM | IC50 (FFLUC_HILL_SLOPE 2.45, FFLUC_R_SQUARED 0.636, PBLUC_HILL_SLOPE 2.61, PBLUC_R_SQUARED 0.591, read-out: LUCIFERASE INFECTION ASSAY - IC50): 5.83 µM |
| N#Cc1c(SCc2ccc(Cl)cc2)nc2c(c1-c1cccs1)CCCC2 | > 8.31 µM | IC50 (FFLUC_HILL_SLOPE 2.42, FFLUC_R_SQUARED 0.441, PBLUC_HILL_SLOPE 1.78, PBLUC_R_SQUARED 0.144, read-out: LUCIFERASE INFECTION ASSAY - IC50): 7.61 µM |
| Cc1ccc(-n2c(SCc3c(-c4ccccc4)nc4sccn34)nnc2-c2ccccc2)cc1C | 3.83 µM | IC50 (FFLUC_HILL_SLOPE 2.28, FFLUC_R_SQUARED 0.669, PBLUC_HILL_SLOPE 14.9, PBLUC_R_SQUARED 0.408, read-out: LUCIFERASE INFECTION ASSAY - IC50): 3.31 µM |
| COc1ccc(CCn2cnc3c(cnn3-c3ccc(C)cc3)c2=O)cc1 | 0.133 µM | IC50 (FFLUC_HILL_SLOPE 2.44, FFLUC_R_SQUARED 0.232, HEPG2TOX_HILL_SLOPE 1.29, HEPG2TOX_R_SQUARED 0.958, PBLUC_HILL_SLOPE 8.61, PBLUC_R_SQUARED 0.878, read-out: LUCIFERASE INFECTION ASSAY - IC50): 0.103 µM |
| COc1ccc(C(c2cc(Cl)c3cccnc3c2O)N2CCN(C)CC2)cc1 (stereo not drawn) | 3.38 µM | IC50 (FFLUC_HILL_SLOPE 2.4, FFLUC_R_SQUARED 0.862, HEPG2TOX_HILL_SLOPE 1.1, HEPG2TOX_R_SQUARED 0.743, PBLUC_HILL_SLOPE 15.9, PBLUC_R_SQUARED 0.801, read-out: LUCIFERASE INFECTION ASSAY - IC50): 2.95 µM |
| CCOC(=O)c1c(S(=O)(=O)Nc2ccc(C(C)(C)C)cc2)c(-c2ccccc2)n(-c2ccccc2)c1C | 5.19 µM | IC50 (FFLUC_HILL_SLOPE 2.33, FFLUC_R_SQUARED 0.844, HEPG2TOX_HILL_SLOPE 0.337, HEPG2TOX_R_SQUARED 0.667, PBLUC_HILL_SLOPE 4.65, PBLUC_R_SQUARED 0.51, read-out: LUCIFERASE INFECTION ASSAY - IC50): 3.23 µM |
